{"source": "ChEMBL document CHEMBL5512665", "about": "“A CARM1 Inhibitor Potently Suppresses Breast Cancer Both In Vitro and In Vivo” (J Med Chem, 2024)", "key": {"MCF7 [1]": {"test_system": "MCF7", "experiment": "Antiproliferative activity against tamoxifen-resistant human MCF7 cells assessed as reduction in cell growth at 5 uM incubated for 7 days by celltiter 96 aqueous one solution cell proliferation assay", "type": "functional, cell-based", "conditions": "time 7.0 day"}, "MCF7 [2]": {"test_system": "MCF7", "experiment": "Antitumor activity against human MCF7 cells xenografted in BALB/C mouse assessed as inhibition of tumor growth at 25 mg/kg,ip administrated every other day for 29 days", "type": "functional, organism-based", "conditions": "time 29.0 day"}, "MCF7 [3]": {"test_system": "MCF7", "experiment": "Antitumor activity against human MCF7 cells xenografted in BALB/C mouse assessed as inhibition of tumor growth at 50 mg/kg,ip administrated every other day for 29 days", "type": "functional, organism-based", "conditions": "time 29.0 day"}, "MCF7 [4]": {"test_system": "MCF7", "experiment": "Antitumor activity against human MCF7 cells xenografted in BALB/C mouse assessed as reduction of tumor weight at 25 mg/kg,ip administrated every other day for 29 days", "type": "functional, organism-based", "conditions": "time 29.0 day"}, "MCF7 [5]": {"test_system": "MCF7", "experiment": "Antitumor activity against human MCF7 cells xenografted in BALB/C mouse assessed as reduction of tumor weight at 50 mg/kg,ip administrated every other day for 29 days", "type": "functional, organism-based", "conditions": "time 29.0 day"}, "[6]": {"experiment": "Toxicity in BALB/C mouse xenografted with human MCF7 cells assessed as change in heart morphology at 25 mg/kg,ip administrated every other day for 29 days", "type": "organism-based", "conditions": "in vivo, 696 h, time 29 day"}, "MCF7 [7]": {"test_system": "MCF7", "experiment": "Antitumor activity against human MCF7 cells xenografted in BALB/C mouse assessed as downregulation of CCND1 gene expression at 50 mg/kg,ip administrated every other day for 29 days by RT-qPCR analysis", "type": "functional, organism-based", "conditions": "time 29.0 day"}, "MCF7 [8]": {"test_system": "MCF7", "experiment": "Antitumor activity against human MCF7 cells xenografted in BALB/C mouse assessed as upregulation of ISG15 gene expression at 25 mg/kg,ip administrated every other day for 29 days by RT-qPCR analysis", "type": "functional, organism-based", "conditions": "time 29.0 day"}, "MDA-MB-468": {"test_system": "MDA-MB-468", "experiment": "Antiproliferative activity against human MDA-MB-468 cells assessed as reduction in cell growth incubated for 7 days by celltiter 96 aqueous one solution cell proliferation assay", "conditions": "MDA-MB-468, 168 h"}, "MDA-MB-231": {"test_system": "MDA-MB-231", "experiment": "Antitumor activity against human MDA-MB-231 cells xenografted in BALB/C mouse assessed as reduction of tumor weight at 50 mg/kg,ip administrated daily for 11 days", "type": "functional, organism-based", "conditions": "time 11.0 day"}, "[9]": {"experiment": "Toxicity in BALB/C mouse xenografted with human MDA-MB-231 cells assessed as change in liver morphology at 25 mg/kg,ip administrated daily for 11 days", "type": "organism-based", "conditions": "in vivo, 264 h, time 11 day"}, "4T1 [10]": {"test_system": "4T1", "experiment": "Antitumor activity against mouse 4T1 cells implanted in BALB/C mouse assessed as inhibition of tumor weight at 25 mg/kg,ip administrated daily for 14 days", "type": "functional, organism-based", "conditions": "time 14.0 day"}, "4T1 [11]": {"test_system": "4T1", "experiment": "Antitumor activity against mouse 4T1 cells implanted in BALB/C mouse assessed as inhibition of tumor weight at 50 mg/kg,ip administrated daily for 14 days", "type": "functional, organism-based", "conditions": "time 14.0 day"}, "4T1 [12]": {"test_system": "4T1", "experiment": "Antitumor activity against mouse 4T1 cells implanted in BALB/C mouse assessed as inhibition of tumor size at 50 mg/kg,ip administrated daily for 14 days", "type": "functional, organism-based", "conditions": "time 14.0 day"}, "[13]": {"experiment": "Toxicity in BALB/C mouse implanted with mouse 4T1 cells assessed as change in body weight at 50 mg/kg,ip administrated daily for 14 days", "type": "organism-based", "conditions": "in vivo, 336 h, time 14 day"}, "[14]": {"experiment": "Toxicity in BALB/C mouse implanted with mouse 4T1 cells assessed as change in heart morphology at 25 mg/kg,ip administrated daily for 14 days", "type": "organism-based", "conditions": "in vivo, 336 h, time 14 day"}, "4T1 [15]": {"test_system": "4T1", "experiment": "Antitumor activity against mouse 4T1 cells implanted in BALB/C mouse assessed as downregulation of TFF1 gene expression at 50 mg/kg,ip administrated daily for 14 days by RT-qPCR analysis", "type": "functional, organism-based", "conditions": "time 14.0 day"}, "4T1 [16]": {"test_system": "4T1", "experiment": "Antitumor activity against mouse 4T1 cells implanted in BALB/C mouse assessed as downregulation of GREB1 gene expression at 50 mg/kg,ip administrated daily for 14 days by RT-qPCR analysis", "type": "functional, organism-based", "conditions": "time 14.0 day"}, "4T1 [17]": {"test_system": "4T1", "experiment": "Antitumor activity against mouse 4T1 cells implanted in BALB/C mouse assessed as downregulation of FOXC1 gene expression at 50 mg/kg,ip administrated daily for 14 days by RT-qPCR analysis", "type": "functional, organism-based", "conditions": "time 14.0 day"}, "4T1 [18]": {"test_system": "4T1", "experiment": "Antitumor activity against mouse 4T1 cells implanted in BALB/C mouse assessed as upregulation of ISG15 gene expression at 25 mg/kg,ip administrated daily for 14 days by RT-qPCR analysis", "type": "functional, organism-based", "conditions": "time 14.0 day"}, "4T1 [19]": {"test_system": "4T1", "experiment": "Antitumor activity against mouse 4T1 cells implanted in BALB/C mouse assessed as upregulation of CCL5 gene expression at 50 mg/kg,ip administrated daily for 14 days by RT-qPCR analysis", "type": "functional, organism-based", "conditions": "time 14.0 day"}, "4T1 [20]": {"test_system": "4T1", "experiment": "Antitumor activity against mouse 4T1 cells implanted in BALB/C mouse assessed as upregulation of CD8A expression at 50 mg/kg,ip administrated daily for 14 days by immunohistochemical staining based analysis", "type": "functional, organism-based", "conditions": "time 14.0 day"}, "MCF7 [21]": {"test_system": "MCF7", "experiment": "Synergistic antiproliferative activity against human MCF7 cells assessed as inhibition of cell growth at 2.5 uM incubated for 7 days in presence of fulvestrant by celltiter 96 aqueous one solution cell proliferation assay", "type": "functional, cell-based", "conditions": "time 7.0 day"}, "MCF7 [22]": {"test_system": "MCF7", "experiment": "Synergistic antiproliferative activity against human MCF7 cells assessed as downregulation of CCND1 gene expression at 2.5 uM incubated for 6 hrs in presence of tamoxifen by RT-qPCR analysis", "type": "functional, cell-based"}, "MCF7 [23]": {"test_system": "MCF7", "experiment": "Synergistic antiproliferative activity against human MCF7 cells assessed as downregulation of C-Myc gene expression at 2.5 uM incubated for 6 hrs in presence of tamoxifen by RT-qPCR analysis", "type": "functional, cell-based"}, "MCF7 [24]": {"test_system": "MCF7", "experiment": "Synergistic antiproliferative activity against human MCF7 cells assessed as downregulation of N-Myc gene expression at 2.5 uM incubated for 6 hrs in presence of fulvestrant by RT-qPCR analysis", "type": "functional, cell-based"}, "MCF7 [25]": {"test_system": "MCF7", "experiment": "Synergistic antiproliferative activity against human MCF7 cells assessed as downregulation of TFF1 gene expression at 2.5 uM incubated for 6 hrs in presence of tamoxifen by RT-qPCR analysis", "type": "functional, cell-based"}, "MCF7 [26]": {"test_system": "MCF7", "experiment": "Synergistic antiproliferative activity against human MCF7 cells assessed as downregulation of GREB1 gene expression at 2.5 uM incubated for 6 hrs in presence of fulvestrant by RT-qPCR analysis", "type": "functional, cell-based"}, "MCF7 [27]": {"test_system": "MCF7", "experiment": "Potentiation of etoposide induced antiproliferative activity against human MCF7 cells assessed as upregulation of ISG15 gene expression at 2.5 uM in presence of etoposide by RT-qPCR analysis", "type": "functional, cell-based"}, "MCF7 [28]": {"test_system": "MCF7", "experiment": "Potentiation of etoposide induced antiproliferative activity against human MCF7 cells assessed as upregulation of IFIT1 gene expression at 2.5 uM in presence of etoposide by RT-qPCR analysis", "type": "functional, cell-based"}, "4T1 [29]": {"test_system": "4T1", "experiment": "Potentiation of etoposide induced antiproliferative activity against mouse 4T1 cells assessed as inhibition of colony formation at 2.5 uM incubated for 10 days in presence of etoposide by crystal violet staining based analysis", "type": "functional, cell-based", "conditions": "time 10.0 day"}, "4T1 [30]": {"test_system": "4T1", "experiment": "Potentiation of etoposide induced antiproliferative activity against mouse 4T1 cells assessed as upregulation of ISG15 gene expression at 2.5 uM in presence of etoposide by RT-qPCR analysis", "type": "functional, cell-based"}, "4T1 [31]": {"test_system": "4T1", "experiment": "Potentiation of etoposide induced antiproliferative activity against mouse 4T1 cells assessed as upregulation of DDX58 gene expression at 2.5 uM in presence of etoposide by RT-qPCR analysis", "type": "functional, cell-based"}, "4T1 [32]": {"test_system": "4T1", "experiment": "Potentiation of etoposide induced antitumor activity against mouse 4T1 cells implanted in BALB/C mouse assessed as reduction in tumor weight at 25 mg/kg,ip administrated daily for 12 days in presence of 8 mg/kg etoposide administration", "type": "functional, organism-based", "conditions": "time 12.0 day"}}, "note": "Activity calls are given as the source filed them. The calls are words filed in the database; no cut-off is given here."}
{"smiles": "Cc1ccc(-c2nc(N3CCN(CCN(C)C)CC3)ncc2-c2ccoc2)cc1.Cl.Cl", "values": [{"measurement": "Activity", "setting": "MCF7 [1]", "value": "Active"}, {"measurement": "Activity", "setting": "MCF7 [2]", "value": "Active"}, {"measurement": "Activity", "setting": "MCF7 [3]", "value": "Active"}, {"measurement": "Activity", "setting": "MCF7 [4]", "value": "Active"}, {"measurement": "Activity", "setting": "MCF7 [5]", "value": "Active"}, {"measurement": "Activity", "setting": "[6]", "value": "Non-Toxic"}, {"measurement": "Activity", "setting": "MCF7 [7]", "value": "Active"}, {"measurement": "Activity", "setting": "MCF7 [8]", "value": "Active"}, {"measurement": "EC50", "setting": "MDA-MB-468", "value": 2.02, "unit": "µM"}, {"measurement": "Activity", "setting": "MDA-MB-231", "value": "Active"}, {"measurement": "Activity", "setting": "[9]", "value": "Non-Toxic"}, {"measurement": "Activity", "setting": "4T1 [10]", "value": "Active"}, {"measurement": "Activity", "setting": "4T1 [11]", "value": "Active"}, {"measurement": "Activity", "setting": "4T1 [12]", "value": "Active"}, {"measurement": "Activity", "setting": "[13]", "value": "Non-Toxic"}, {"measurement": "Activity", "setting": "[14]", "value": "Non-Toxic"}, {"measurement": "Activity", "setting": "4T1 [15]", "value": "Active"}, {"measurement": "Activity", "setting": "4T1 [16]", "value": "Active"}, {"measurement": "Activity", "setting": "4T1 [17]", "value": "Active"}, {"measurement": "Activity", "setting": "4T1 [18]", "value": "Active"}, {"measurement": "Activity", "setting": "4T1 [19]", "value": "Active"}, {"measurement": "Activity", "setting": "4T1 [20]", "value": "Active"}, {"measurement": "Activity", "setting": "MCF7 [21]", "value": "Active"}, {"measurement": "Activity", "setting": "MCF7 [22]", "value": "Active"}, {"measurement": "Activity", "setting": "MCF7 [23]", "value": "Active"}, {"measurement": "Activity", "setting": "MCF7 [24]", "value": "Active"}, {"measurement": "Activity", "setting": "MCF7 [25]", "value": "Active"}, {"measurement": "Activity", "setting": "MCF7 [26]", "value": "Active"}, {"measurement": "Activity", "setting": "MCF7 [27]", "value": "Active"}, {"measurement": "Activity", "setting": "MCF7 [28]", "value": "Active"}, {"measurement": "Activity", "setting": "4T1 [29]", "value": "Active"}, {"measurement": "Activity", "setting": "4T1 [30]", "value": "Active"}, {"measurement": "Activity", "setting": "4T1 [31]", "value": "Active"}, {"measurement": "Activity", "setting": "4T1 [32]", "value": "Active"}]}
